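Cultured in 96-well plates, cells were exposed to test compound for 48 hours across five concentrations. Abbreviation: GI50, concentration required for 50% inhibition of growth. TGI denotes the concentration required for complete inhibition of growth.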

Among the test systems are CAKI-1 renal; TK-10 renal; SNB-75 CNS; SK-MEL-28 melanoma; COLO 205 colon; OVCAR-8 ovarian; ACHN renal; HCT-116 colon; LOX IMVI melanoma.
Assay in all cases: NCI-60 cell line screen, 48 h

For the compound `COc1ccc(C2C(Cl)C(=O)N2n2cnc3ccccc3c2=O)cc1OC` (stereo not drawn), the TGI with CAKI-1 renal was above 100 µM; with TK-10 renal, above 100 µM; in the assay with SNB-75 CNS it was 84.7 µM; in the assay with SK-MEL-28 melanoma, above 100 µM; in the assay with COLO 205 colon, above 100 µM; with OVCAR-8 ovarian, above 100 µM. For the same compound, the TGI in the assay on ACHN renal, in the assay on HCT-116 colon and in the assay with LOX IMVI melanoma was above 100 µM throughout.
Take `Cc1cc(O)c2c(c1)C(O)(c1ccc3c(c1O)C(=O)c1c(O)cc(C)cc1C3(O)C1OC(CO)C(O)C(O)C1O)c1cccc(O)c1C2=O` (stereo not drawn): the TGI in the assay with CAKI-1 renal was found to be 31.7 µM; with TK-10 renal, 27.2 µM; in the assay with SNB-75 CNS, 27.5 µM; in the assay on SK-MEL-28 melanoma it was 28.9 µM; in the assay on OVCAR-8 ovarian, 34 µM; with ACHN renal, 25.8 µM. In addition, the results for the TGI with HCT-116 colon and with LOX IMVI melanoma were 24.1 µM and 28 µM, respectively.
As to `O=[N+]([O-])c1ccc(N=Nc2c(O)[nH]c3ccc([N+](=O)[O-])cc23)cc1`, the TGI in the assay with CAKI-1 renal was above 100 µM; in the assay with TK-10 renal it was 54.7 µM; in the assay on SNB-75 CNS it was above 100 µM; in the assay with SK-MEL-28 melanoma, 47.4 µM; in the assay with COLO 205 colon, above 100 µM; with OVCAR-8 ovarian, 35 µM. In addition, the TGI in the assay on ACHN renal was 76.4 µM; with LOX IMVI melanoma it was above 100 µM.
With `O=C(C(=O)c1ccc(Cc2ccc(C(=O)C(=O)c3ccccc3)cc2)cc1)c1ccccc1`, the TGI with CAKI-1 renal, in the assay on TK-10 renal, with SNB-75 CNS, in the assay with SK-MEL-28 melanoma, in the assay on COLO 205 colon and in the assay on OVCAR-8 ovarian was above 100 µM each time. The TGI in the assay with ACHN renal, in the assay with HCT-116 colon and in the assay on LOX IMVI melanoma was above 100 µM in each case.
Turning to `CSc1nc2c(c(O)c(C)c(=O)n2C2OC(COC(C)=O)C(OC(C)=O)C(OC(C)=O)C2OC(C)=O)c(=O)n1C` (stereo not drawn), the TGI in the assay on CAKI-1 renal, with TK-10 renal, with SNB-75 CNS, in the assay on SK-MEL-28 melanoma, with COLO 205 colon and in the assay with OVCAR-8 ovarian was above 100 µM in each case. The TGI in the assay on ACHN renal, with HCT-116 colon and in the assay on LOX IMVI melanoma was above 100 µM in each case.
On to `C/C(=N/N(C=O)C[n+]1ccccc1)C(CN(CC(C)C)CC(C)C)C(=O)Nc1ccc(C)cc1C` (stereo not drawn), for which the TGI in the assay on CAKI-1 renal, in the assay with TK-10 renal, with SK-MEL-28 melanoma, in the assay on COLO 205 colon, with OVCAR-8 ovarian and in the assay with ACHN renal was above 100 µM throughout. The TGI with HCT-116 colon was above 100 µM.
With `O=c1nc(-c2ccccc2)c2c3c(cccn13)CCC2`, the TGI in the assay with CAKI-1 renal, in the assay on TK-10 renal, in the assay with SNB-75 CNS, with SK-MEL-28 melanoma, in the assay on OVCAR-8 ovarian and in the assay with ACHN renal was above 100 µM each time. The TGI in the assay with HCT-116 colon and in the assay with LOX IMVI melanoma was above 100 µM in each case.
For `O=C(c1ccccc1)c1c(CC(O)c2cccnc2)n(C(=O)c2ccccc2)c2ccccc12` (stereo not drawn), the TGI with CAKI-1 renal is 70.6 µM; in the assay on TK-10 renal, 86.3 µM; in the assay with SNB-75 CNS it was 32.4 µM; with SK-MEL-28 melanoma it was 31.5 µM; in the assay with COLO 205 colon, 40.6 µM; with OVCAR-8 ovarian it was above 100 µM. The TGI in the assay with ACHN renal came to 82.7 µM; with HCT-116 colon, 30.8 µM.
Regarding `O=C1c2ccccc2N2OC3(N4CCCC4)CCCC3C12c1ccccc1` (stereo not drawn), the TGI in the assay with SNB-75 CNS, with SK-MEL-28 melanoma, in the assay on COLO 205 colon, in the assay on OVCAR-8 ovarian, in the assay with ACHN renal and in the assay on HCT-116 colon was above 100 µM each time.
With `Cc1cc([N+](=O)[O-])c(C)c2c1[nH]c1ccc(/C(CCC3CCCC3)=N\N)cc12`, the TGI with TK-10 renal turned out to be 27.3 µM; in the assay on SNB-75 CNS, 46.7 µM; with SK-MEL-28 melanoma, 34 µM; in the assay with COLO 205 colon, 33.1 µM; in the assay with OVCAR-8 ovarian, 75 µM; in the assay with ACHN renal it was 28.8 µM. Besides, the TGI in the assay with HCT-116 colon was 21.7 µM; with LOX IMVI melanoma, 29.6 µM.
Turning to `COc1ccc(C(C2=C(C)C(=O)c3ccccc3C2=O)c2ccc(C(C)C)cc(=O)c2O)cc1` (stereo not drawn), the TGI in the assay with CAKI-1 renal was 7.91 µM; in the assay with SNB-75 CNS it was 6.47 µM; with COLO 205 colon it was 20.7 µM; in the assay with OVCAR-8 ovarian, 45.7 µM; with ACHN renal it was 9.96 µM; with HCT-116 colon, 14.7 µM. Further, the TGI in the assay on LOX IMVI melanoma was determined as 17.6 µM.
As for `CC(C)N(C(=O)C12C3C4C1C1C2C3C41C(O)C(C)(C)C)C(C)C` (stereo not drawn), the TGI in the assay on CAKI-1 renal, in the assay on SNB-75 CNS, in the assay on SK-MEL-28 melanoma, in the assay with COLO 205 colon, in the assay on OVCAR-8 ovarian and in the assay with ACHN renal was above 50 µM in each case. The compound further yielded a TGI with HCT-116 colon above 50 µM.
Take `COc1ccc(-n2nnc3c(sc4ccccc43)c2=O)cc1`: the GI50 with SK-MEL-28 melanoma, in the assay on COLO 205 colon and in the assay on LOX IMVI melanoma was above 100 µM in each case. Moreover, the TGI with SK-MEL-28 melanoma, in the assay on COLO 205 colon and with LOX IMVI melanoma was above 100 µM in each case.
With `Cc1nc2c(n1CC(C)(C)C)C(=O)c1ccccc1C2=O`, the TGI with TK-10 renal, with SNB-75 CNS, in the assay on SK-MEL-28 melanoma, in the assay on COLO 205 colon, with OVCAR-8 ovarian and with ACHN renal was above 100 µM in each case. Moreover, the TGI with HCT-116 colon and in the assay on LOX IMVI melanoma was above 100 µM throughout.
`CC(C)c1cccc(C(C)C)c1NC(=O)C(=O)C(C(=O)c1ccccc1-c1ccccc1)C1OC(=O)c2ccccc21` (stereo not drawn): the TGI with CAKI-1 renal is 76.5 µM; with TK-10 renal, 46.1 µM; in the assay on SK-MEL-28 melanoma, 71.9 µM; in the assay on COLO 205 colon it was 81.5 µM; in the assay on OVCAR-8 ovarian, 35 µM; with ACHN renal, above 100 µM. In addition, the TGI in the assay on HCT-116 colon was 73.3 µM; with LOX IMVI melanoma, 31.1 µM.
In the case of `CCc1ccccc1NC(=O)C(=O)C(C(=O)c1ccc(OC)cc1)c1ccc(OC)cc1` (stereo not drawn), the TGI in the assay on CAKI-1 renal, with TK-10 renal, with COLO 205 colon, in the assay on OVCAR-8 ovarian, in the assay on ACHN renal and in the assay on HCT-116 colon was above 100 µM each time. Also, the TGI in the assay with LOX IMVI melanoma was above 100 µM.

The values above are taken from PubChem BioAssay (NCI).
